1 molecule from patent US20090203692A1, “NOVEL CHEMICAL COMPOUNDS” (SMITHKLINE BEECHAM CORPORATION, priority 2005, published 2009) can be followed below.

For the experiment, the target named is T1, hYAK3 (Homo sapiens, UniProt O43781).
T1 construct: GST (N); His6 (C); made in house; host or cells: baculovirus expression system in Sf9 cells
T1 sequence (O43781 142-526): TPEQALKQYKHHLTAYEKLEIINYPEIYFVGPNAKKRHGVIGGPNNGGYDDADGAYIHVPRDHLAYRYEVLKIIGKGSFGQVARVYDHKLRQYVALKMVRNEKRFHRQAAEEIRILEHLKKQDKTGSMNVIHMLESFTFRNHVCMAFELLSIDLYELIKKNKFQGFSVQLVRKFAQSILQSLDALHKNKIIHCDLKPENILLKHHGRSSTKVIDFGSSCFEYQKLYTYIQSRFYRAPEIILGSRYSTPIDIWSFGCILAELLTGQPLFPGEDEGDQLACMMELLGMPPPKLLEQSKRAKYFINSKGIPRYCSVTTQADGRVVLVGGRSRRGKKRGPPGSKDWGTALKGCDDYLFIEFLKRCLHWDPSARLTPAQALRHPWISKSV
The experiment can be described thus: YAK3 Scintillation Proximity Assay using Ser164 of myelin basic protein as the phosphoacceptor (kinase assay of purified hYAK3). It is filed as biochemical. Conditions: purified GST-hYak3-His6 4 nM; 1 μM ATP; 4 μM Ser164 peptide; 2 hours at room temperature; pIC50=-Log10(K). How it is done:
Substrate phosphorylation assays were carried out as follows:
YAK3 Scintillation Proximity Assays Using Ser164 of Myelin Basic Protein as the Phosphoacceptor
The source of Ser164 substrate peptide The biotinylated Ser164, S164A peptide(LGGRDSRAGS*PMARRKK-ahx-Biotin-Amide), sequence derived from the C-terminus of bovine myelin basic protein (MBP) with […] substituted as Ala 162, was purchased from California Peptide Research Inc. (Napa, Calif.), and its purity was determined by HPLC. Phosphorylation occurs at position 164 (marked S* above). The calculated molecular mass of the peptide is 2166 dalton. Solid sample was dissolved at 10 mM in DMSO, aliquoted, and stored at −20 C until use. […]
Kinase assay of purified hYAK3: Assays were performed in 96 well (Costar, Catalog No. 3789) or 384 well plates (Costar, Catalog No. 3705). […] Compounds, titrated in DMSO, were evaluated at concentrations ranging from 50 μM to 0.2 nM. […]
The data for compound dose responses were plotted as % Inhibition, calculated with the data reduction formula 100*(1−[(U1−C2)/(C1−C2)]), versus concentration of compound, where U is the unknown value, C1 is the average control value obtained for DMSO, and C2 is the average control value obtained for 0.05M EDTA. […] The results for each compound were recorded as pIC50 calculated as follows: pIC50=−Log 10(K).

The molecule `O=C1N=C(Nc2cccnc2Cl)S/C1=C\c1ccc2ncccc2c1` [Example 1, (5Z)-2-[(2-Chloro-3-pyridinyl)amino]-5-(6-quinolinylmethylidene)-1,3-thiazol-4(5H)-one] gave an IC50 of 1.58 nM. This counts as single-digit nanomolar.
